Laboratory results as given in patent US20180340225A1 (SHANGHAI INSTITUTE FOR ENDOCRINE AND METABOLIC DISEASES, priority 2015, published 2018).

Tested on: patients with Type 2 diabetes
Test: Clinical efficacy indexes before and after 3 months of Acarbose treatment in naïve patients with Type 2 diabetes, by enterotype
Assay type: in vivo, human
Conditions: Prevotella enterotype, After treatment
Description: For naïve patients with Type 2 diabetes, their liver and kidney functions, blood glucose and lipid levels, intestinal hormones, inflammatory factors, and cardiovascular risk-related factors are evaluated before medication. Their stool, urine, and blood samples are retained. […] The patients' blood glucose levels are followed up every month within 3 months, and the medication is adjusted according to the blood glucose level. Three months later, the pre-medication assessment is repeated, and the urine, stool and blood samples are retained.
a) A randomized, opened, positive control method is adopted to collect the naïve patients with Type 2 diabetes and normal controls of their spouses. […] The newly diagnosed patients of Type 2 diabetes without medication receive routine examinations, including the retention of stool and blood samples.
i. Draw venous blood 15 ml under fasting condition, of which, 1.5 ml is used for detection of plasma glucose, 6.5 ml is added to ordinary tubes (including aprotinin, DPPV inhibitor), and 6.5 ml is added to anticoagulant tubes (including heparin and RNA later)
ii. Centrifuge the blood in ordinary tube at 4° C., when serum is separated out, draw about 3 ml, and divide to three 1.5 ml Eppendorf on average, then tighten the tube caps;
iii. Centrifuge the anticoagulation blood immediately at 4° C., to separate out about 3 ml of plasma, then divide to three 1.5 ml imported RNAase free Eppendorf tubes on average, […]

C[C@H]1O[C@H](O[C@H]2[C@H](O)[C@@H](O)[C@@H](O[C@H]3[C@H](O)[C@@H](O)C(O)O[C@@H]3CO)O[C@@H]2CO)[C@H](O)[C@@H](O)[C@@H]1N[C@H]1C=C(CO)[C@@H](O)[C@H](O)[C@H]1O (stereo partly shown) [Acarbose]
AKP Mean: 77.5
ALB Mean: 44.39
ALT Mean: 44.36
APOA Mean: 1.267
APOB Mean: 0.9273
AST Mean: 29.36
Adipisin Mean: 3221619.467
Adpn Mean: 10063264.07
BMI Mean: 25.11
BW Mean: 72.63
CP0 Mean: 2.485
CP30 Mean: 2.802
CP60 Mean: 3.609
CP120 Mean: 5.305
CP180 Mean: 4.735
DBIL Mean: 6.293
DBP Mean: 74.93
ENDOM Mean: 14.27
Endothelin Mean: 4.776
FABP3 Mean: 2147
FABP4 Mean: 10510.4
FGF1M Mean: 24.33
FGF2M Mean: 13.67
FGF19M Mean: 19.3
FGF23M Mean: 43.47
G30 Mean: 7.601
G60 Mean: 9.055
G120 Mean: 9.171
G180 Mean: 7.853
GIP0 Mean: 57.4
GIP30 Mean: 208.4
GIP60 Mean: 217.2
GIP120 Mean: 227.8
GIP180 Mean: 194.8
GMCSFM Mean: 67.97
GO Mean: 6.712
HB Mean: 147.8
HBA1C Mean: 6.313
HDL Mean: 2.869
HGF Mean: 400.9
HIP Mean: 97.21
HOMA.IR Mean: 3.327
IFNr1 Mean: 38.8
IL1B Mean: 0.9107
IL1bM Mean: 22.23
IL2M Mean: 58.77
IL4M Mean: 31.074
IL5M Mean: 43.97
IL6M Mean: 40.53
IL6 Mean: 2.665
IL8 Mean: 15.44
IL9M Mean: 84.9
IL10 Mean: 1.798
IL12 Mean: 9.944
IL13 Mean: 279.4
IL15M Mean: 291.8
IL17AM Mean: 32.03
IL17EM Mean: 21.23
IL17FM Mean: 232.6
IL21 Mean: 34.47
IL22M Mean: 30.5
IL23M Mean: 41.7
IL27 Mean: 73.1
IL28a Mean: 18.37
IL31M Mean: 112.3
IL33M Mean: 43.5
INS0 Mean: 11.734
INS30 Mean: 14.21
INS60 Mean: 23.404
INS120 Mean: 27.84
INS180 Mean: 20.88
K Mean: 4.054
LBP Mean: 17.616
LDL Mean: 1.169
LEPTIN Mean: 4522
LPA Mean: 214.8
Lymph Mean: 28.21
MCP1 Mean: 252.8
MIP3A Mean: 29.94
NEU Mean: 63.59
NGAL Mean: 174248.3333
NGF Mean: 2.434
Na Mean: 142.2
PAI1 Mean: 61006.73333
PDGFAA Mean: 4507
PDGFAABB Mean: 24006.8
PP0 Mean: 69.67
PP30 Mean: 376.7
PP60 Mean: 318.92
PP120 Mean: 260.1
PP180 Mean: 204.7
RANTES Mean: 47562.53333
RBC Mean: 4.945
RCv Mean: 0.4421
SBP Mean: 119.8
TBIL Mean: 14.9
TC Mean: 4.883
TG Mean: 1.694
TNFBM Mean: 44.7
TNFa Mean: 4.572
TPRO Mean: 73.55
Trophonin M Mean: 17.9
WAIST Mean: 88.93
WBC Mean: 6.146
WHR Mean: 0.9136
bun Mean: 326.5
creatine Mean: 67.42
crp Mean: 19.638
egf Mean: 267.604
fetuinA Mean: 417.3
fgf1 Mean: 13.79
fgf2 Mean: 43.98
fgf21M Mean: 97.93
fgf21 Mean: 0.296
monocyte Mean: 5.829
mpo Mean: 467.3
oscatinM Mean: 101.1
pCP0 Mean: 1066
pCP30 Mean: 1362
pCP60 Mean: 1935.42
pCP120 Mean: 2723.04
pCP180 Mean: 2526
pGLP10 Mean: 3.644
pGLP130 Mean: 11.41
pGLP160 Mean: 13.72
pGLP1120 Mean: 9.07
pGLP1180 Mean: 6.458
pHOMA.IR Mean: 2.717
pgh0 Mean: 53.4025
pgh30 Mean: 64.28
pgh60 Mean: 56.35
pgh120 Mean: 42.5275
pgh0180 Mean: 50.87
pgluc0 Mean: 39.2
pgluc30 Mean: 41.17
pgluc60 Mean: 36.68
pgluc120 Mean: 29.63
pgluc180 Mean: 30.43
pins0 Mean: 416.3
pins30 Mean: 639.9
pins60 Mean: 969
pins120 Mean: 1373
pins180 Mean: 1153
platelet Mean: 206.3
ppyy0 Mean: 43.57
ppyy30 Mean: 64.34
ppyy60 Mean: 56.78
ppyy120 Mean: 54.02
ppyy180 Mean: 51.59
rGT Mean: 43.12
resistin Mean: 25013.66667
sicam1 Mean: 123
svcam1 Mean: 545.498
urea Mean: 4.954
vegfa Mean: 340.2
vegfc Mean: 128.7
vegfd Mean: 195.1
